Source: patent publication US20110086924A1, “Method of manufacturing an eutectic crystalline sugar alcohol” (B Food Science Co., Ltd., priority 2005, published 2011)

Test: Dissolving time in water (rate of dissolution)
Format: physicochemical
Details: 10 g in 100 ml water at 20° C.; particle size 150 μm or more but less than 350 μm
From the text: Powder containing an eutectic crystalline sorbitol/maltitol prepared by the same way as that of Example 11 was classified into a part (crude particle part) having a particle size of 350 μm or more but less than 2 mm and a part (powdery product of 150 to 350 μm in particle size) having a particle size of 150 μm or more but less than 350 μm.
In addition, as a control, powdery sorbitol (SORBITOL FP, manufactured by NIKKEN FINE CHEMICALS CO., LTD.), powdery maltitol (AMARTY MR, manufactured by TOWA KASEI CO., LTD.), and a mixture of powdery sorbitol and powdery maltitol (1:1), which were classified so as to have a particle size of 150 μm or more but less than 350 μm (powdery product of 150 to 350 μm in particle size), were prepared.
Ten grams of each of them was poured into 100 ml of water at 20° C. and then subjected to the measurement of dissolving time. Consequently, the crude part of the powder containing an eutectic crystalline sorbitol/maltitol dissolved within 50 seconds, the powdery product of the powder containing an eutectic crystalline sorbitol/maltitol having a particle size of 150 to 350 μm dissolved within 18 seconds, the powdery sorbitol dissolved within 35 seconds, the powdery maltitol dissolved within 54 seconds, and the mixture of the powdery sorbitol and the powdery maltitol dissolved within 46 seconds.

Structure (SMILES)	dissolving time
OC[C@@H](O)[C@@H](O[C@H]1O[C@H](CO)[C@@H](O)[C@H](O)[C@H]1O)[C@H](O)[C@@H](O)CO [powdery maltitol, maltitol]	≤ 54 s
OC[C@@H](O)[C@@H](O)[C@H](O)[C@@H](O)CO [powdery sorbitol, sorbitol]	≤ 35 s
